{"source": "patent US20170189429A1", "about": "“Treating Arrhythmia with Mitochondrial-Targeted Antioxidants” (Rhode Island Hospital, priority 2014, published 2017)", "key": {"[1]": {"test_system": "sodium channel current (INa)", "assay": "Patch clamp peak INa in adult mouse cardiomyocytes treated with antimycin A", "format": "cell-based", "description": "FIG. 9A is a bar graph showing that MitoQ restored INa that was decreased by antimycin A. The peak INa at −30 mV in adult mouse cardiomyocytes was decreased in antimycin A (5-10 μM) compared with SCNSA alone. Treatment using MitoQ at 10 nM with a 1-2 hour preincubation time restored INa. The SCNSA group is the untreated group. For patch clamp, MitoQ and antimycin A were also applied to the patch clamp bath solution during the entire time of patching, respectively or together. INa was measured at room temperature. Data shown in FIGS. 9A and 9B were obtained from 3 different mice, and 16-28 cells were used on average in each group.\nIn addition to MitoTEMP and NAD^+, another mitochondrial-targeted antioxidant, MitoQ, was tested. […] is an antibiotic that induces apoptosis and inhibits the mitochondrial electron transport chain, thereby inducing oxidative stress and generating reactive oxygen species. Because antimycin A is known to generate ROS (for example, increasing superoxide formation), it decreases the sodium channel current (INa). Additionally, antiomycin A causes damage to mitochondrial DNA, lipids, and proteins in cells treated with the antibiotic. […] Mitochondrial ROS production in response to increased antimycin A levels was monitored by MitoSox Red with SCNSA cells and myocytes (FIGS. 9A and 9B). […]"}, "INa": {"test_system": "INa", "assay": "INa in cardiomyopathy of DOCA mice injected with NAD", "format": "in vivo, mouse", "conditions": "injection 100 mg/kg", "description": "Reduced INa in cardiomyopathy of DOCA was corrected by injection of NAD (100 mg/kg), which had no effect on the sham group (FIG. 8B)."}, "mitochondrial ROS [2]": {"test_system": "mitochondrial ROS", "assay": "Mitochondrial ROS by flow cytometry in DOCA mice injected with NAD+", "format": "in vivo, mouse", "conditions": "100 mg/kg injected in the neck, P>0.05", "description": "Three to four animals and ˜10,000 myocytes from each animal were tested in each group in flow cytometry (FIG. 8A)."}, "cardiac INa": {"test_system": "cardiac INa", "assay": "Peak INa of DOCA mouse cardiomyocytes treated with NAD+", "format": "cell-based", "conditions": "500 μmol/L", "source_text": "NAD^+ restored INa decreased by mitoROS in PL-treated cells and in DOCA myocytes."}, "mitochondrial ROS [3]": {"test_system": "mitochondrial ROS", "assay": "Mitochondrial ROS by MitoSox Red confocal microscopy in PL-treated cells and DOCA myocytes", "format": "cell-based, mouse", "description": "FIG. 6A is a photo showing representative confocal microscopy images of myocytes of 3 groups. Scale bar, 10 μm. Mitochondrial ROS production in response to intracellular NADH was monitored by MitoSox Red with SCNSA cells and myocytes. The control groups were untreated, the pyruvate and lactate (PL) groups were treated with 1 and 10 mmol/L PL buffer, respectively, for 10 minutes, and the NAD-PL groups were incubated with 500 μmol/L NAD^+ for ˜6 hours and then treated with PL buffer for 10 minutes.\nFIG. 6C is a photo showing that mitochondrial ROS levels were increased in DOCA (deoxycorticosterone) myopathic mice and reduced by NAD treatment (500 μmol/L). Representative confocal microscopy images of mitochondrial ROS levels were obtained with treatment of myocytes monitored with MitoTracker Green and MitoSox Red. The white scale bar is 20 μm. […]\nMitochondrial ROS production in response to intracellular NADH was monitored by MitoSox Red with SCNSA cells and myocytes (FIGS. 6A and 6B). […]\nMitochondrial ROS levels were increased in DOCA myopathic mice and reduced by NAD^+ treatment (500 μmol/L) (FIG. 6C. Representative confocal microscopy images of mitochondrial ROS levels were obtained with treatment of myocytes monitored with MitoTracker Green and MitoSox Red. The white scale bar is 20 μm. The extremely red cells are dying myocytes that have very high levels of ROS."}, "[4]": {"test_system": "SCN5A: sodium channel, voltage gated type V alpha subunit", "assay": "INa in SCN5A cells treated with NADH", "format": "cell-based", "description": "FIG. 1A is a graph showing a series of sodium current traces measuring a INa reduction induced by NADH (nicotinamide adenine dinucleotide) (SCN5A+100 μM [NADH]) compared to normal INa (SCN5A), which can be restored by mitoTEMPO (SCN5A+100 μM [NADH]+5 μM [mitoTEMPO]). SCN5A: sodium channel, voltage gated type V alpha subunit\nFIG. 1B is a bar graph showing INa reduction induced by NADH (SCN5A+100 μM [NADH]) compared to normal INa (SCN5A), which can be restored by mitoTEMPO (SCN5A+100 μM [NADH]+5 μM [mitoTEMPO]), which is also compared to mitoTEMPO (5 μM [mitoTEMPO]).\nThe SCNSA group is the untreated cells group, and the others were treated with 100 μmol/L NADH in the absence or presence of NAD from 50 to 1000 μmol/L.\nThe SCN5A group is the untreated cells group, and the others were treated with 100 μmol/L NADH in the absence or presence of NAD from 50 to 1000 μmol/L."}, "[5]": {"test_system": "cardiac Na+ channel (Nav1.5)", "assay": "Whole-cell patch clamp recording of Na+ currents (INa) in cardiomyocytes isolated from MI mice treated with antioxidant", "format": "in vivo, mouse", "description": "(§1) The following materials and methods were used to generate the data described herein. MI was induced in 12-week old C57BL/6 mice by coronary artery occlusion. Sham-operated mice were used as controls. Two weeks following surgery, MI mice were either given a mitochondria-targeted antioxidant, mitoTEMPO (0.7 mg/kg/day, intraperitoneally), or left untreated for two weeks. Cardiomyocytes isolated from the scar border of MI mice or from the left ventricular (LV) anterior wall of sham-operated mice were utilized for whole-cell patch clamp recording of Na^+currents (INa) and for measurements of mitochondrial reactive oxygen species (mitoROS) using flow cytometry. Nav1.5 protein expression levels were determined in the LV from MI and sham-operated mice. Echocardiography was performed 2- and 4-weeks following MI. Oxidized nicotinamide adenine dinculeotide used for experiments was purchased from Sigma-Aldrich, catalog number N1636 “β-Nicotinamide adenine dinucleotide hydrate, ≧99%, Synonyms: NAD^+, β-DPN, β-NAD, Coenzyme 1, Cozymase, DPN, Diphosphopyridine nucleotide, NAD, Nadide” and dissolved in water. MitoQ was used at 10 nM.\nMI was induced in 12-week old C57BL/6 mice by coronary artery occlusion. Sham-operated mice were used as controls. […]\nWhole cell INa were measured using the whole-cell patch clamp technique in voltage-clamp mode at room temperature."}, "[6]": {"test_system": "mitochondrial reactive oxygen species (mitoROS)", "assay": "mitoROS by flow cytometry (MitoSOX Red) in cardiomyocytes of treated MI mice", "format": "in vivo, mouse", "description": "The following materials and methods were used to generate the data described herein. MI was induced in 12-week old C57BL/6 mice by coronary artery occlusion. Sham-operated mice were used as controls. Two weeks following surgery, MI mice were either given a mitochondria-targeted antioxidant, mitoTEMPO (0.7 mg/kg/day, intraperitoneally), or left untreated for two weeks. Cardiomyocytes isolated from the scar border of MI mice or from the left ventricular (LV) anterior wall of sham-operated mice were utilized for whole-cell patch clamp recording of Na^+currents (INa) and for measurements of mitochondrial reactive oxygen species (mitoROS) using flow cytometry. Nav1.5 protein expression levels were determined in the LV from MI and sham-operated mice. Echocardiography was performed 2- and 4-weeks following MI. […]\nA BD LSR II (BD Biosciences) flow cytometer was used for high-throughput evaluation of mitoROS, mitochondrial volume, and cell survival. […] Separate suspensions were stained with propidium iodide (10 μg/mL) and evaluated at 617 nm to measure for cell integrity. Five thousand gated cells were recorded in each sample. […]"}, "[7]": {"assay": "Echocardiography 2 and 4 weeks following MI", "format": "in vivo, mouse", "conditions": "MI mice", "description": "as §1"}, "Connexin 43": {"test_system": "Connexin 43", "assay": "Connexin 43 protein level expression in heart tissue of MI mice", "format": "in vivo, mouse", "source_text": "FIG. 5A is a blot showing Connexin 43 protein level expressions and Glyceraldehyde 3-phosphate dehydrogenase (GAPDH) protein level expressions in heart tissue of Sham, MI mice and MI mice treated with mitoTEMPO (MI tx MT).\nFIG. 5B is a bar graph showing Connexin 43/GAPDH protein expression in Sham, MI mice and MI mice treated with mitoTEMPO (MI tx MT).\nMI was induced in 12-week old C57BL/6 mice by coronary artery occlusion. Sham-operated mice were used as controls. Two weeks after surgery, MI mice were either given a mitochondria-targeted antioxidant, mitoTEMPO (0.7 mg/kg/day, intraperitoneally), or left untreated for two weeks (Rutledge C A et al. J Am Coll Cardiol 2014; 63:928-934)."}, "ROS": {"test_system": "ROS", "assay": "ROS density by MitoSox dye in adult mouse cardiomyocytes treated with antimycin A", "format": "cell-based", "conditions": "MitoQ 1-2 hours pretreatment, 10 nM", "description": "FIG. 9B is a bar graph showing that Mito Q decreased ROS that was generated by antimycin A. ROS density in adult mouse cardiomyocytes was measured using MitoSox dye. Adult mouse cardiomyocytes were isolated, and MitoQ was applied for 1-2 hours pretreatment.\nIn addition to MitoTEMP and NAD^+, another mitochondrial-targeted antioxidant, MitoQ, was tested. […] is an antibiotic that induces apoptosis and inhibits the mitochondrial electron transport chain, thereby inducing oxidative stress and generating reactive oxygen species. Because antimycin A is known to generate ROS (for example, increasing superoxide formation), it decreases the sodium channel current (INa). Additionally, antiomycin A causes damage to mitochondrial DNA, lipids, and proteins in cells treated with the antibiotic. MitoSOX Red is a fluorescent mitochondrial probe used to measure ROS production. Mitochondrial ROS production in response to increased antimycin A levels was monitored by MitoSox Red with SCNSA cells and myocytes (FIGS. 9A and 9B).\nIsolated adult mouse cardiomyocytes were pretreated with MitoQ."}, "[8]": {"conditions": "rodents treated 0.7 mg/kg/day intraperitoneally after ischemic insult"}}}
{"molecule": "antimycin A", "values": [{"measurement": "peak INa at −30 mV, effect of antimycin A", "setting": "[1]; 5-10 μM, compared with SCN5A alone (untreated)", "result": "decreased"}]}
{"molecule": "NC(=O)c1ccc[n+]([C@@H]2O[C@H](COP(=O)([O-])OP(=O)(O)OC[C@H]3O[C@@H](n4cnc5c(N)ncnc54)[C@H](O)[C@@H]3O)[C@@H](O)[C@H]2O)c1", "note": "[NAD^+, β-Nicotinamide adenine dinucleotide hydrate]", "values": [{"measurement": "reduced INa in cardiomyopathy of DOCA", "setting": "INa; DOCA mice", "result": "corrected"}, {"measurement": "INa, effect on the sham group", "setting": "INa; sham mice", "result": "no effect"}, {"measurement": "mitochondrial ROS", "setting": "mitochondrial ROS [2]", "result": "1.1±0.1 fold of sham"}, {"measurement": "peak INa of DOCA mouse cardiomyocytes", "setting": "cardiac INa", "result": "restored INa to the sham level"}, {"measurement": "mitochondrial ROS levels in DOCA myopathic mice myocytes", "setting": "mitochondrial ROS [3]; 500 μmol/L", "result": "reduced"}, {"measurement": "MitoROS level increased by PL", "setting": "mitochondrial ROS [3]; 500 μmol/L NAD+ for ~6 hours, then PL buffer 10 minutes", "result": "Decreased"}, {"measurement": "inhibition of NADH on cardiac INa, effect of extracellular NAD", "setting": "[4]; 100 μmol/L NADH, NAD from 50 to 1000 μmol/L", "result": "reversed the inhibition of NADH on cardiac INa in a dose-dependent manner"}]}
{"molecule": "CC1(C)CC(NC(=O)C[P+](c2ccccc2)(c2ccccc2)c2ccccc2)CC(C)(C)N1[O]", "note": "[mitoTEMPO, (2-(2,2,6,6-Tetramethylpiperidin-1-oxyl-4-ylamino)-2-oxoethyl)triphenylphosphonium chloride monohydrate]", "values": [{"measurement": "peak INa density", "setting": "[5]; MI mice, 0.7 mg/kg/day intraperitoneally for two weeks, isolated LV cardiomyocytes, sham −24.0±1.8, untreated MI −14.3±1.4", "result": "−19.4±0.8", "unit": "pA/pF"}, {"measurement": "INa activity, effect in words", "setting": "[5]; [8]", "result": "statistically significant increase"}, {"measurement": "mitoROS level", "setting": "[6]; MI mice, 0.7 mg/kg/day intraperitoneally for two weeks, scar border cardiomyocytes, untreated MI 1.5±0.2 fold", "result": "1.2±0.2", "unit": "fold"}, {"measurement": "mitochondrial ROS, effect in words", "setting": "[6]; [8]", "result": "statistically significant decrease"}, {"measurement": "echocardiography parameters, untreated vs treated groups", "setting": "[7]", "result": "no significant differences"}, {"measurement": "INa reduced by NADH, effect of antioxidant", "setting": "[4]; SCN5A + 100 μM NADH + 5 μM mitoTEMPO", "result": "restored"}, {"measurement": "effect on connexin 43 downregulation in MI", "setting": "Connexin 43; MI mice", "result": "no effect"}, {"measurement": "Connexin 43 level, of sham levels", "setting": "Connexin 43; treated MI mice, untreated MI 56%, P<0.01 vs sham, ns vs MI", "result": 41, "unit": "%"}]}
{"molecule": "COC1=C(OC)C(=O)C(CCCCCCCCCC[P+](c2ccccc2)(c2ccccc2)c2ccccc2)=C(C)C1=O", "note": "[MitoQ, 10-(6′-Ubiquinolyl)decylthriphenylphosphonium bromide]", "values": [{"measurement": "INa decreased by antimycin A, effect of antioxidant", "setting": "[1]; 10 nM, 1-2 hour preincubation, antimycin A 5-10 μM, peak INa at −30 mV, room temperature", "result": "restored INa"}, {"measurement": "ROS (MitoSOX density) generated by antimycin A", "setting": "ROS", "result": "elevated MitoSOX density"}, {"measurement": "ROS (MitoSOX density) generated by antimycin A", "setting": "ROS; listed as Mito Q", "result": "decreased ROS"}]}
